Series [1] can be described thus: pH of excipient and felodipine suspensions before and after heat treatment (Example 11). It counts as physicochemical. The procedure: The heat treatment step involved heating the mixture at reflux for 15 minutes and allowing the mixture to stand over night.
Series [2] in a line: Aqueous solubility of felodipine. It counts as physicochemical.

≈ marks a conversion by molar mass, not a printed value.

Consider `O=P([O-])([O-])O.[Ca+2]` [Dibasic calcium phosphate (DCP), Dibasic calcium phosphate], for which the pH is given as 4.07 in series [1] (Heat Treatment (reflux 15 minutes, stand over night)) and 7.39 in series [1] (Initial). Besides, the “Δ pH” value in series [1] (Heat Treatment versus Initial) is on record as −3.32.

As for `CCOC(=O)C1=C(C)NC(C)=C(C(=O)OC)C1c1cccc(Cl)c1Cl` (racemic) [felodipine], in series [2] (all pH levels), the aqueous solubility entry is on record as “about 0.0001%”. The same compound showed a solubility in series [2] (aqueous media) of 0.5 µg/mL (≈ 1.3 µM).

Values taken from US20020086061A1 (priority 1999, published 2002).
